# Assay results from the Kinase Knowledgebase extract (Sharma et al. 2016).
# Target: PIK3CA (human) (UniProt P42336)
# Experiment: Assessment of PIK3CA Kinase Activity
# PIK3CA (human), sequence (P42336 whole entry, looked up): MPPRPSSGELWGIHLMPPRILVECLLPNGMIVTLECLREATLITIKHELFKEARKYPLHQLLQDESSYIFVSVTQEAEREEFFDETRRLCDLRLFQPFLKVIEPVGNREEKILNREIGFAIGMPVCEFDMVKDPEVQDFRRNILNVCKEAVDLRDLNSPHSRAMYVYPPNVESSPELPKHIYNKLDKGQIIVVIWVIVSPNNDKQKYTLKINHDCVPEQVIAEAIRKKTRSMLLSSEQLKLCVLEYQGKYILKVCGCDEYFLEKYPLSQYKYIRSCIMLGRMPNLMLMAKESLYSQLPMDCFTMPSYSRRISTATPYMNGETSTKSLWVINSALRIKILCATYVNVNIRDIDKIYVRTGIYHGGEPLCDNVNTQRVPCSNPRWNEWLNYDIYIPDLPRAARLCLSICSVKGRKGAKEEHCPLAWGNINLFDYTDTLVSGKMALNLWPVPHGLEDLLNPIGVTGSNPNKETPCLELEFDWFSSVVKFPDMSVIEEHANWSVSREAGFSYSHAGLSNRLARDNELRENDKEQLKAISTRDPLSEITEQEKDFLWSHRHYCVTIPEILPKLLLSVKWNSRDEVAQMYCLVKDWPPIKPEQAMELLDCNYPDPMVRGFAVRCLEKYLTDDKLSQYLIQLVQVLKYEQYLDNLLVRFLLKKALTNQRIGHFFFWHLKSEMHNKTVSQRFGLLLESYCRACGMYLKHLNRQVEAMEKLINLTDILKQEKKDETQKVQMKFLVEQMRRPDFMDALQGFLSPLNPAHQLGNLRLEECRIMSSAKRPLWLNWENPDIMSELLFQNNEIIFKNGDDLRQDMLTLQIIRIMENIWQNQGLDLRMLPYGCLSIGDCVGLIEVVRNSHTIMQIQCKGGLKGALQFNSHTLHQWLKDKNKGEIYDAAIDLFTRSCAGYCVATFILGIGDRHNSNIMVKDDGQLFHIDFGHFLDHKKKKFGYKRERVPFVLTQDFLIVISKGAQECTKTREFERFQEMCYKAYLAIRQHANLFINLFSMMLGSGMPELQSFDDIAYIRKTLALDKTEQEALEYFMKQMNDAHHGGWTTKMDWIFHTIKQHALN
row,Compound,IC50
1,Cc1cc(-c2cnc3sc(N)nc3c2)cc2c1OCCN(c1nc(N)nc(C)c1-c1cccc(F)c1)C2,≤ 100 nM
2,Cc1cc(-c2cnc3sc(N)nc3c2)cc2c1OCCN(c1nc(CNCCF)nc(C)c1C(C)C)C2,≤ 100 nM
3,Cc1cc(-c2cnc3sc(N)nc3c2)cc2c1OCCN(c1nc(C3CCCN3C)nc(C)c1C(C)C)C2 (configuration not stated),≤ 100 nM
4,Cc1cc(-c2cnc3sc(N)nc3c2)cc2c1OCCN(c1nc(CNC3CC3)nc(C)c1C(C)C)C2,≤ 100 nM
5,Cc1cc(-c2cnc3sc(N)nc3c2)cc2c1OCCN(c1nc(CN(C)C)ncc1CC(F)(F)F)C2,100 to 500 nM
6,Cc1cc(-c2cnc3sc(N)nc3c2)cc2c1OCCN(c1nc(C(F)(F)F)nc(C)c1C(C)C)C2,≤ 100 nM
7,CC(=O)c1c(C)ncnc1N1CCOc2c(C)cc(-c3cnc4sc(N)nc4c3)cc2C1,≤ 100 nM
8,Cc1cc(-c2nnc(N)s2)cc2c1OCCN(c1nc(N)nc(C)c1C)C2,≤ 100 nM
9,Cc1ncc(C(C)C)c(N2CCOc3c(C)cc(-c4cnc5sc(N)nc5c4)cc3C2)n1,≤ 100 nM
10,Cc1cc(-c2cnc3sc(N)nc3c2)cc2c1OCCN(c1nc(C(C)N)nc(C)c1C(C)C)C2 (configuration not stated),≤ 100 nM
11,Cc1cc(-c2cnc(Cl)c(NS(C)(=O)=O)c2)cc2c1OCCN(c1nc(C(=O)NCCN(C)C)nc(C)c1C(C)C)C2,≤ 100 nM
12,COc1ccc(-c2cc(C)c3c(c2)CN(c2nc(N)nc(C)c2C(C)C)CCO3)cc1OC,≤ 100 nM
13,COCc1nc(C)c(C(C)C)c(N2CCOc3c(C)cc(-c4cnc5sc(N)nc5c4)cc3C2)n1,≤ 100 nM
14,CCCc1c(C)nc(N)nc1N1CCOc2c(C)cc(-c3cnc4sc(N)nc4c3)cc2C1,≤ 100 nM
15,CCc1c(Cl)nc(N)nc1N1CCOc2c(C)cc(-c3cnc4sc(N)nc4c3)cc2C1,≤ 100 nM
16,COCc1c(C)nc(C)nc1N1CCOc2c(C)cc(-c3cnc4sc(N)nc4c3)cc2C1,≤ 100 nM
17,Cc1cc(-c2cnc(Cl)c(NS(C)(=O)=O)c2)cc2c1OCCN(c1nc(CNCCF)nc(C)c1C(C)C)C2,≤ 100 nM
18,Cc1cc(-c2cnc3sc(N)nc3c2)cc2c1OCCN(c1nc(C(C)O)nc(C)c1C(C)C)C2 (configuration not stated),≤ 100 nM
19,Cc1cc(-c2cnc3sc(N)nc3c2)cc2c1OCCN(c1nc(CC#N)nc(C)c1C(C)C)C2,≤ 100 nM
20,Cc1cc(-c2ccncc2)cc2c1OCCN(c1nc(N)nc(C)c1C(C)C)C2,≤ 100 nM
21,COCCOc1nc(C)c(C(C)C)c(N2CCOc3c(C)cc(-c4cnc5sc(N)nc5c4)cc3C2)n1,≤ 100 nM
22,CCc1cnc(CN(C)C)nc1N1CCOc2c(C)cc(-c3cnc4sc(N)nc4c3)cc2C1,≤ 100 nM
23,Cc1cc(-c2cnc3sc(N)nc3c2)cc2c1OCCN(c1ncnc3c1CC(C)(C)C=C3)C2,≤ 100 nM

row,Compound,IC50
1,Cc1cc(-c2cnc3sc(N)nc3c2)cc2c1OCCN(c1nc([C@@H]3C[C@@H](F)CN3)nc(C)c1C(C)C)C2,≤ 100 nM
2,Cc1cc(-c2cnc3sc(N)nc3c2)cc2c1OCCN(c1nc(CN(C)CCF)nc(C)c1C(C)C)C2,≤ 100 nM
3,Cc1cc(-c2cnc3nc[nH]c3c2)cc2c1OCCN(c1nc(N)nc(C)c1C(C)C)C2,≤ 100 nM
4,Cc1cc(-c2cnc3sc(N)nc3c2)cc2c1OCCN(c1nc(N3CC(O)C3)nc(C)c1C(C)C)C2,≤ 100 nM
5,C=Cc1c(C)ncnc1N1CCOc2c(C)cc(-c3cnc4sc(N)nc4c3)cc2C1,≤ 100 nM
6,Cc1cc(-c2cnc3sc(N)nc3c2)cc2c1OCCN(c1nc(CNC(C)(C)C)nc(C)c1C(C)C)C2,≤ 100 nM
7,CCc1c(Cl)nc(CN(C)C)nc1N1CCOc2c(C)cc(-c3cnc4sc(N)nc4c3)cc2C1,≤ 100 nM
8,Cc1cc(-c2cnc3sc(N)nc3c2)cc2c1OCCN(c1ncc(C#N)c(N)n1)C2,≤ 100 nM
9,Cc1cc(-c2cnc3sc(N)nc3c2)cc2c1OCCN(c1nc(C(O)C(F)(F)F)nc(C)c1C(C)C)C2 (configuration not stated),≤ 100 nM
10,Cc1nc2cc(-c3cc(C)c4c(c3)CN(c3nc(N)nc(C)c3C(C)C)CCO4)cnc2[nH]1,≤ 100 nM
11,Cc1cc(-c2cn(C)nc2C)cc2c1OCCN(c1nc(N)nc(C)c1C(C)C)C2,≤ 100 nM
12,CNc1nc(C)c(C(C)C)c(N2CCOc3c(C)cc(-c4cnc5sc(N)nc5c4)cc3C2)n1,≤ 100 nM
13,Cc1cnccc1N1CCOc2c(C)cc(-c3cnc4sc(N)nc4c3)cc2C1,≤ 100 nM
14,C#Cc1c(C)nc(N)nc1N1CCOc2c(C)cc(-c3cnc4sc(N)nc4c3)cc2C1,≤ 100 nM
15,Cc1cc(-c2cncc(NS(C)(=O)=O)c2)cc2c1OCCN(c1nc(N)nc(C)c1C(C)C)C2,≤ 100 nM
16,Cc1cc(-c2cnc3sc(N)nc3c2)cc2c1OCCN(c1nc(N)ncc1C(F)(F)F)C2,≤ 100 nM
17,Cc1cc(-c2cnc3sc(N)nc3c2)cc2c1OCCN(c1nc(CF)nc(C)c1C(C)C)C2,≤ 100 nM
18,Cc1cc(-c2cnc3sc(N)nc3c2)cc2c1OCCN(c1nc(CN3CCCC3)ncc1C(C)C)C2,≤ 100 nM
19,COc1ncc(-c2cc(C)c3c(c2)CN(c2nc(N)nc(C)c2C(C)C)CCO3)cn1,≤ 100 nM
20,CNc1ncnc(N2CCOc3c(C)cc(-c4cnc5sc(N)nc5c4)cc3C2)c1[N+](=O)[O-],100 to 500 nM
21,Cc1cc(-c2cnc3sc(N)nc3c2)cc2c1OCCN(c1nc(CN(C)C)ncc1C(C)C)C2,≤ 100 nM
22,Cc1cc(-c2cnc3sc(N)nc3c2)cc2c1OCCN(c1nc(N3CCN(C)CC3)nc(C)c1C(C)C)C2,≤ 100 nM
23,Cc1cc(-c2cnc3sc(N)nc3c2)cc2c1OCCN(c1nc(C3CNC3)nc(C)c1C(C)C)C2,≤ 100 nM

row,Compound,IC50
1,C=Cc1c(Cl)nc(N)nc1N1CCOc2c(C)cc(-c3cnc4sc(N)nc4c3)cc2C1,≤ 100 nM
2,Cc1cc(-c2nnc(N)s2)cc2c1OCCN(c1nc(CN(C)CC(F)F)nc(C)c1C(C)C)C2,≤ 100 nM
3,Cc1nc2ncc(-c3cc(C)c4c(c3)CN(c3nc(CNCC(F)F)nc(C)c3C(C)C)CCO4)cc2[nH]1,≤ 100 nM
4,Cc1cc(-c2cnc3sc(N)nc3c2)cc2c1OCCN(c1nc(C(F)F)nc(C)c1C(C)C)C2,≤ 100 nM
5,Cc1cnc(N)nc1N1CCOc2c(C)cc(-c3nnc(N)s3)cc2C1,≤ 100 nM
6,CCc1c(C)nc(N)nc1N1CCOc2c(C)cc(-c3cnc4sc(N)nc4c3)cc2C1,≤ 100 nM
7,COc1nc(C)c(C(C)C)c(N2CCOc3c(C)cc(-c4cnc5sc(N)nc5c4)cc3C2)n1,≤ 100 nM
8,Cc1ncc(C)c(N2CCOc3c(C)cc(-c4nnc(N)s4)cc3C2)n1,100 to 500 nM
9,CC#CCc1c(C)nc(C)nc1N1CCOc2c(C)cc(-c3cnc4sc(N)nc4c3)cc2C1,≤ 100 nM
10,Cc1nc(N)nc(N2CCOc3ccc(-c4cnc5sc(N)nc5c4)cc3C2)c1C(C)C,≤ 100 nM
11,COCCc1c(C)nc(C)nc1N1CCOc2c(C)cc(-c3cnc4sc(N)nc4c3)cc2C1,≤ 100 nM
12,Cc1cc(-c2cnc3sc(N)nc3c2)cc2c1OCCN(c1nccc(N)n1)C2,100 to 500 nM
13,Cc1cc(-c2cnc3sc(N)nc3c2)cc2c1OCCN(c1ncnc(Cl)c1C(C)(C)O)C2,100 to 500 nM
14,COc1cc(-c2cnc3sc(N)nc3c2)cc2c1OCCN(c1nc(CN(C)C)nc(C)c1C(C)C)C2,≤ 100 nM
15,Cc1cc(-c2cncnc2)cc2c1OCCN(c1nc(N)nc(C)c1C(C)C)C2,100 to 500 nM
16,CC(=O)NCc1nc(C)c(C(C)C)c(N2CCOc3c(C)cc(-c4cnc5sc(N)nc5c4)cc3C2)n1,≤ 100 nM
17,COc1ncc(-c2cc(C)c3c(c2)CN(c2nc(N)nc(C)c2C(C)C)CCO3)cc1NS(C)(=O)=O,≤ 100 nM
18,Cc1cc(-c2cnc(Cl)c(NS(C)(=O)=O)c2)cc2c1OCCN(c1nc(C(N)=O)nc(C)c1C(C)C)C2,≤ 100 nM
19,Cc1cc(-c2cccc(C(N)=O)c2)cc2c1OCCN(c1nc(N)nc(C)c1C(C)C)C2,100 to 500 nM
20,Cc1cc(-c2cnc3sc(N)nc3c2)cc2c1OCCN(c1nc(CN(C)C)nc(Cl)c1C(C)C)C2,≤ 100 nM
21,CC(=O)Nc1ncc(-c2cc(C)c3c(c2)CN(c2nc(N)nc(C)c2C(C)C)CCO3)s1,100 to 500 nM
22,Cc1cc(-c2cn[nH]c2)cc2c1OCCN(c1nc(N)nc(C)c1C(C)C)C2,≤ 100 nM
23,Cc1cc(-c2ccnc(F)c2)cc2c1OCCN(c1nc(N)nc(C)c1C(C)C)C2,≤ 100 nM

row,Compound,IC50
1,CCc1nc(N)nc(N2CCOc3c(C)cc(-c4cnc5sc(N)nc5c4)cc3C2)c1C(C)C,≤ 100 nM
2,Cc1cc(-c2cnc3sc(N)nc3c2)cc2c1OCCN(c1nc(C3CCCN3)nc(C)c1C(C)C)C2 (configuration not stated),≤ 100 nM
3,Cc1cc(-c2cnc3sc(N)nc3c2)cc2c1OCCN(c1nc(N)c(C#N)cc1C#N)C2,≤ 100 nM
4,Cc1cc(-c2ccc(N)nc2)cc2c1OCCN(c1nc(N)nc(C)c1C(C)C)C2,100 to 500 nM
5,CCc1c(C)nc(CN(C)C)nc1N1CCOc2c(C)cc(-c3cnc4sc(N)nc4c3)cc2C1,≤ 100 nM
6,CNC(=O)c1sc(N2CCOc3c(C)cc(-c4cnc(Cl)c(NS(C)(=O)=O)c4)cc3C2)nc1C(C)C,100 to 500 nM
7,Cc1nc2ccc(-c3cc(C)c4c(c3)CN(c3nc(CN(C)C)nc(C)c3C(C)C)CCO4)cc2[nH]1,≤ 100 nM
8,Cc1cc(-c2cccc(O)c2)cc2c1OCCN(c1nc(N)nc(C)c1C(C)C)C2,≤ 100 nM
9,Cc1cc(-c2cnc3sc(N)nc3c2)cc2c1OCCN(c1nc(CN3CCCC3)nc(C)c1C(C)C)C2,≤ 100 nM
10,C=C(C)c1c(C)ncnc1N1CCOc2c(C)cc(-c3cnc4sc(N)nc4c3)cc2C1,≤ 100 nM
11,C=Cc1c(C)nc(N)nc1N1CCOc2c(C)cc(-c3nnc(N)s3)cc2C1,≤ 100 nM
12,Cc1cc(-c2cnc(N)nc2)cc2c1OCCN(c1nc(N)nc(C)c1C(C)C)C2,≤ 100 nM
13,Cc1cc(-c2cnc3sc(N)nc3c2)cc2c1OCCN(c1nc(N)nc(C)c1CC1CC1)C2,≤ 100 nM
14,Cc1cc(-c2nnc(N)s2)cc2c1OCCN(c1nc(N)ncc1C(C)C)C2,≤ 100 nM
15,Cc1cc(-c2cnc3sc(N)nc3c2)cc2c1OCCN(c1nc(N)nc(Cl)c1C(C)C)C2,≤ 100 nM
16,Cc1cc(-c2cnc3sc(N)nc3c2)cc2c1OCCN(c1nc(S(C)(=O)=O)nc(C)c1C(C)C)C2,≤ 100 nM
17,COc1cncc(-c2cc(C)c3c(c2)CN(c2nc(N)nc(C)c2C(C)C)CCO3)c1,≤ 100 nM
18,Cc1nc(C)c(C(C)C)c(N2CCOc3c(C)cc(-c4nnc(N)s4)cc3C2)n1,≤ 100 nM
19,CNCc1nc(C)c(C(C)C)c(N2CCOc3c(C)cc(-c4cnc5sc(N)nc5c4)cc3C2)n1,≤ 100 nM
20,CCn1cc(-c2cc(C)c3c(c2)CN(c2nc(N)nc(C)c2C(C)C)CCO3)cn1,100 to 500 nM
21,Cc1cc(-c2cccnc2)cc2c1OCCN(c1nc(N)nc(C)c1C(C)C)C2,≤ 100 nM
22,COCCc1c(C)ncnc1N1CCOc2c(C)cc(-c3cnc4sc(N)nc4c3)cc2C1,≤ 100 nM
23,Cc1cc(-c2cnc3sc(N)nc3c2)cc2c1OCCN(c1ncnc3c1CC[C@H](C)C3)C2,≤ 100 nM
